Measured values reported in the supplement of paper PMC11061612.

How the values were obtained:
Test in all cases: Bliss excess, mean over the matrix (fraction); higher = more synergy
[1] = tested on: DoTc2-4510 (Cervical Carcinoma)
Summary of the method: (§1)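 After 24 hours at 37°C and 5% CO2 in 1536-well plates, cells in DMEM/F12 or RPMI plus 10% FBS received two-drug dose matrices for 72 hours. Viability came from CellTiter-Glo 2.0 luminescence and was scaled as inhibition, anchored at 0 by vehicle wells and at 1 by blank wells. Combination Emax is taken as the second-highest inhibition in the matrix, and Bliss excess as the observed combination effect less EA + EB − EA·EB, with EA and EB the single-agent effects.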

[2] = tested on: B-CPAP (Thyroid Gland Carcinoma)
Summary of the method: as §1

[3] = tested on: TE-15 (Esophageal Squamous Cell Carcinoma)
Summary of the method: as §1

[4] = tested on: LS-180 (Colorectal Carcinoma)
Summary of the method: as §1

[5] = tested on: HO-1-N-1 (Oral Cavity Carcinoma)
Summary of the method: as §1

[6] = tested on: KYSE-520 (Esophageal Squamous Cell Carcinoma)
Summary of the method: as §1

[7] = tested on: SK-ES-1 (Ewing's Sarcoma)
Summary of the method: as §1

[8] = tested on: MDA-MB-361 (Breast Carcinoma)
Summary of the method: as §1

[9] = tested on: KURAMOCHI (Ovarian Carcinoma)
Summary of the method: as §1

[10] = tested on: MFE-296 (Endometrial Carcinoma)
Summary of the method: as §1

NB10 (Neuroblastoma) = tested on: NB10 (Neuroblastoma)
Summary of the method: as §1

[11] = tested on: EC-GI-10 (Esophageal Squamous Cell Carcinoma)
Summary of the method: as §1

KELLY (Neuroblastoma) = tested on: KELLY (Neuroblastoma)
Summary of the method: as §1

[12] = tested on: TE-9 (Esophageal Squamous Cell Carcinoma)
Summary of the method: as §1

[13] = tested on: OVCA420 (Ovarian Carcinoma)
Summary of the method: as §1

[14] = tested on: NCI-H82 (Small Cell Lung Carcinoma)
Summary of the method: as §1

ES4 (Ewing's Sarcoma) = tested on: ES4 (Ewing's Sarcoma)
Summary of the method: as §1

NOS-1 (Osteosarcoma) = tested on: NOS-1 (Osteosarcoma)
Summary of the method: as §1

[15] = tested on: RC-K8 (B-Cell Non-Hodgkin's Lymphoma)
Summary of the method: as §1

42-MG-BA (Glioblastoma) = tested on: 42-MG-BA (Glioblastoma)
Summary of the method: as §1

Row | SMILES | Bliss excess [1] | Bliss excess [2] | Bliss excess [3] | Bliss excess [4] | Bliss excess [5] | Bliss excess [6] | Bliss excess [7] | Bliss excess [8] | Bliss excess [9] | Bliss excess [10] | Bliss excess (NB10 (Neuroblastoma)) | Bliss excess [11] | Bliss excess (KELLY (Neuroblastoma)) | Bliss excess [12] | Bliss excess [13] | Bliss excess [14] | Bliss excess (ES4 (Ewing's Sarcoma)) | Bliss excess (NOS-1 (Osteosarcoma)) | Bliss excess [15] | Bliss excess (42-MG-BA (Glioblastoma))
1 | COc1nnc2ccc(N3CCC(c4ccc(OCCN5CCN(C)C(=O)[C@H]5C)cc4)CC3)nn12 [AZD5153] + CC1(C)CCC(CN2CCN(c3ccc(C(=O)NS(=O)(=O)c4ccc(NCC5CCOCC5)c([N+](=O)[O-])c4)c(Oc4cnc5[nH]ccc5c4)c3)CC2)=C(c2ccc(Cl)cc2)C1 [Venetoclax] (first compound max 1 µM, 7x7, partner max 1 µM) | -0.0405 | -0.0858 | -0.0698 | -0.0614 | -0.095 | -0.0444 | -0.0092 | -0.0257 | -0.0471 | -0.0824 | -0.0566 | -0.118 | -0.0857 | -0.0599 | -0.0527 | -0.103 | -0.111 | -0.0078 | -0.0587 | -0.0391
2 | C[C@@H](c1ccc2nccn2c1)n1nnc2ncc(-c3cnn(C)c3)nc21 [Savolitinib] + CC1(C)CCC(CN2CCN(c3ccc(C(=O)NS(=O)(=O)c4ccc(NCC5CCOCC5)c([N+](=O)[O-])c4)c(Oc4cnc5[nH]ccc5c4)c3)CC2)=C(c2ccc(Cl)cc2)C1 [Venetoclax] (first compound max 1 µM, 7x7, partner max 1 µM) | -0.0601 | -0.0453 | -0.0227 | -0.0201 | -0.0105 | -0.0774 | -0.0545 | -0.0349 | -0.0274 | -0.0427 | -0.0389 | -0.0547 | -0.0038 | -0.0307 | -0.0505 | -0.0467 | -0.0443 | -0.05 | -0.0489 | -0.04
3 | CN(CCO)CC[C@H](CSc1ccccc1)Nc1ccc(S(=O)(=O)NC(=O)c2ccc(N3CCC([C@@H](O)c4ccccc4-c4ccc(Cl)cc4)CC3)cc2)cc1S(=O)(=O)C(F)(F)F [AZD4320] + CCN(CCO)CCCOc1ccc2c(Nc3cc(CC(=O)Nc4cccc(F)c4)[nH]n3)ncnc2c1 [AZD2811] (first compound max 1 µM, 7x7, partner max 1 µM) | 0.114 | 0.0126 | -0.0393 | -0.0044 | -0.0255 | -0.0505 | 0.0156 | 0.122 | 0.0224 | -0.0109 | -0.0097 | 0.0532 | 0.051 | 0.03 | -0.0352 | 0.0891 | 0.0157 | 0.0616 | 0.17 | 0.15
4 | Cn1cnc2c(F)c(Nc3ccc(Br)cc3Cl)c(C(=O)NOCCO)cc21 [Selumetinib] + CCN(CCO)CCCOc1ccc2c(Nc3cc(CC(=O)Nc4cccc(F)c4)[nH]n3)ncnc2c1 [AZD2811] (first compound max 10 µM, 7x7, partner max 1 µM) | -0.0098 | 0.001 | -0.0741 | -0.0541 | -0.0692 | 0.0547 | -0.0272 | -0.004 | -0.0203 | -0.0309 | -0.0402 | 0.0087 | -0.0709 | -0.0347 | 0.0471 | 0.0317 | -0.0398 | -0.0092 | 0.0763 | -0.0458
5 | Cn1cnc2c(F)c(Nc3ccc(Br)cc3Cl)c(C(=O)NOCCO)cc21 [Selumetinib] + C=CCn1c(=O)c2cnc(Nc3ccc(N4CCN(C)CC4)cc3)nc2n1-c1cccc(C(C)(C)O)n1 [AZD1775] (first compound max 10 µM, partner max 1 µM) | -0.0164 | -0.0704 | -0.0299 | -0.0585 | -0.0206 | 0.0054 | -0.0706 | -0.053 | 0.0427 | -0.059 | -0.0125 | -0.0424 | -0.0658 | -0.0343 | -0.0093 | -0.106 | -0.0679 | 0.0355 | -0.0714 | -0.0509
6 | CN(C)CCCOc1ccc(-c2ccc3ncc4c(c3c2)n(C2CCOCC2)c(=O)n4C)cn1 [AZD0156] + O=C(c1cc(Cc2n[nH]c(=O)c3ccccc23)ccc1F)N1CCN(C(=O)C2CC2)CC1 [Olaparib] (first compound max 3 µM, partner max 3 µM) | -0.043 | 0.0785 | 0.0576 | -0.002 | 0.0618 | -0.0172 | 0.393 | 0.0254 | -0.0737 | -0.0153 | 0.334 | 0.0772 | 0.0009 | 0.109 | 0.0121 | 0.0369 | 0.116 | 0.0594 | -0.0046 | 0.0602
7 | COc1nnc2ccc(N3CCC(c4ccc(OCCN5CCN(C)C(=O)[C@H]5C)cc4)CC3)nn12 [AZD5153] + C[C@@H]1COCCN1C2=NC(=NC(=C2)C3(CC3)[S@](=N)(=O)C)C4=C5C=CNC5=NC=C4 [AZD6738] (first compound max 1 µM, 7x7, partner max 10 µM) | 0.0412 | 0.0219 | -0.0096 | -0.0165 | 0.01 | -0.0009 | 0.0023 | -0.0172 | 0.0157 | 0.0129 | 0.0214 | 0.0203 | -0.0107 | 0.0039 | -0.0057 | -0.0906 | 0.0104 | 0.0006 | -0.0424 | -0.0155
8 | Cn1cnc2c(F)c(Nc3ccc(Br)cc3Cl)c(C(=O)NOCCO)cc21 [Selumetinib] + C[C@@H]1COCCN1C2=NC(=NC(=C2)C3(CC3)[S@](=N)(=O)C)C4=C5C=CNC5=NC=C4 [AZD6738] (first compound max 10 µM, 7x7, partner max 10 µM) | -0.0282 | -0.0026 | 0.0391 | -0.0516 | -0.0475 | 0.0227 | -0.005 | -0.0396 | 0.0517 | -0.0543 | -0.0247 | 0.0623 | -0.015 | -0.0063 | 0.078 | -0.0337 | -0.039 | 0.043 | 0.0091 | -0.0061
9 | CC1(C)CCC(CN2CCN(c3ccc(C(=O)NS(=O)(=O)c4ccc(NCC5CCOCC5)c([N+](=O)[O-])c4)c(Oc4cnc5[nH]ccc5c4)c3)CC2)=C(c2ccc(Cl)cc2)C1 [Venetoclax] + C=CCn1c(=O)c2cnc(Nc3ccc(N4CCN(C)CC4)cc3)nc2n1-c1cccc(C(C)(C)O)n1 [AZD1775] (first compound max 1 µM, partner max 1 µM) | 0.0075 | -0.0835 | -0.0737 | -0.0559 | 0.0912 | -0.0907 | 0.0455 | 0.0331 | 0.0572 | -0.0391 | -0.0113 | 0.0086 | 0.0593 | 0.0674 | -0.0079 | 0.0342 | -0.0268 | 0.0193 | -0.0082 | -0.0687
10 | CC1(C)CCC(CN2CCN(c3ccc(C(=O)NS(=O)(=O)c4ccc(NCC5CCOCC5)c([N+](=O)[O-])c4)c(Oc4cnc5[nH]ccc5c4)c3)CC2)=C(c2ccc(Cl)cc2)C1 [Venetoclax] + C[C@@H]1COCCN1C2=NC(=NC(=C2)C3(CC3)[S@](=N)(=O)C)C4=C5C=CNC5=NC=C4 [AZD6738] (first compound max 1 µM, 7x7, partner max 10 µM) | -0.0174 | -0.0136 | -0.0314 | -0.0174 | -0.0248 | -0.0353 | 0.0104 | -0.0214 | -0.0451 | -0.0296 | 0.0159 | 0.0294 | 0.0209 | -0.0019 | 0.0047 | 0.0098 | -0.0465 | -0.057 | -0.0294 | -0.0057
11 | CN(CCO)CC[C@H](CSc1ccccc1)Nc1ccc(S(=O)(=O)NC(=O)c2ccc(N3CCC([C@@H](O)c4ccccc4-c4ccc(Cl)cc4)CC3)cc2)cc1S(=O)(=O)C(F)(F)F [AZD4320] + Cc1cc2ncnn2cc1Nc1ncc2c(n1)n(C1CCOCC1)c(=O)n2C [AZD7648] (first compound max 1 µM, 7x7, partner max 10 µM) | -0.0144 | -0.0275 | -0.046 | -0.0458 | -0.0407 | -0.0365 | 0.0809 | 0.0056 | -0.0239 | -0.0185 | -0.0281 | -0.0397 | 0.0306 | -0.016 | -0.0436 | 0.012 | 0.0147 | 0.0375 | 0.0198 | -0.0244
12 | COc1cc2ncnc(Nc3ccc(F)c(Cl)c3)c2cc1OCCCN1CCOCC1 [Gefitinib] + CC(C)n1c(=O)n(C)c2cnc3cc(F)c(-c4ccc(OCCCN5CCCCC5)nc4)cc3c21 [AZD1390] (first compound max 10 µM, 7x7, partner max 0.3 µM) | -0.0601 | -0.0752 | -0.0941 | -0.0623 | -0.0506 | -0.043 | -0.0733 | -0.0535 | -0.0401 | -0.0483 | -0.0629 | -0.0526 | -0.0388 | -0.0522 | -0.0193 | -0.0088 | -0.0177 | -0.063 | -0.0473 | -0.0891
13 | C=CCn1c(=O)c2cnc(Nc3ccc(N4CCN(C)CC4)cc3)nc2n1-c1cccc(C(C)(C)O)n1 [AZD1775] + C1CN(CCC1(C(=O)N[C@@H](CCO)C2=CC=C(C=C2)Cl)N)C3=NC=NC4=C3C=CN4 [Capivasertib] (first compound max 3 µM, partner max 3 µM) | 0.0408 | 0.0065 | 0.0494 | -0.0513 | 0.0595 | -0.0129 | 0.0726 | -0.0156 | -0.072 | -0.0091 | -0.18 | 0.0203 | -0.0393 | -0.002 | -0.0518 | 0.003 | 0.0691 | 0.0118 | -0.002 | -0.0419
14 | CN(CCO)CC[C@H](CSc1ccccc1)Nc1ccc(S(=O)(=O)NC(=O)c2ccc(N3CCC([C@@H](O)c4ccccc4-c4ccc(Cl)cc4)CC3)cc2)cc1S(=O)(=O)C(F)(F)F [AZD4320] + C[C@@H](Nc1cc(F)cc(F)c1)c1cc(C(=O)N(C)C)cc2c(=O)cc(N3CCOCC3)oc12 [AZD8186] (first compound max 1 µM, 7x7, partner max 3 µM) | 0.0252 | 0.0064 | -0.0335 | -0.0535 | 0.0421 | -0.0712 | 0.0521 | 0.0094 | 0.0147 | 0.0075 | -0.0357 | 0.0191 | 0.029 | 0.0165 | 0.002 | 0.0359 | -0.0507 | -0.0096 | -0.015 | 0.0453
